Experimental data reported in patent publication US20130078351A1, “COMPOUNDS AND METHODS FOR ENHANCING SALTY TASTE” (Monell Chemical Senses Center, priority 2010, published 2013).

Assays:
[1] = target: T1, Epithelial Sodium Channel (ENaC) subunits delta/beta/gamma (Homo sapiens, UniProt P51168+P51170+P51172); assay: Testing in Xenopus oocytes expressing ENaC (inward sodium current recording); assay type: cell-based; details: oocyte expressing delta
T1 construct: expressed in transfected cells; host or cells: Xenopus laevis oocytes injected with cRNA
T1 sequence (P51172 1-802): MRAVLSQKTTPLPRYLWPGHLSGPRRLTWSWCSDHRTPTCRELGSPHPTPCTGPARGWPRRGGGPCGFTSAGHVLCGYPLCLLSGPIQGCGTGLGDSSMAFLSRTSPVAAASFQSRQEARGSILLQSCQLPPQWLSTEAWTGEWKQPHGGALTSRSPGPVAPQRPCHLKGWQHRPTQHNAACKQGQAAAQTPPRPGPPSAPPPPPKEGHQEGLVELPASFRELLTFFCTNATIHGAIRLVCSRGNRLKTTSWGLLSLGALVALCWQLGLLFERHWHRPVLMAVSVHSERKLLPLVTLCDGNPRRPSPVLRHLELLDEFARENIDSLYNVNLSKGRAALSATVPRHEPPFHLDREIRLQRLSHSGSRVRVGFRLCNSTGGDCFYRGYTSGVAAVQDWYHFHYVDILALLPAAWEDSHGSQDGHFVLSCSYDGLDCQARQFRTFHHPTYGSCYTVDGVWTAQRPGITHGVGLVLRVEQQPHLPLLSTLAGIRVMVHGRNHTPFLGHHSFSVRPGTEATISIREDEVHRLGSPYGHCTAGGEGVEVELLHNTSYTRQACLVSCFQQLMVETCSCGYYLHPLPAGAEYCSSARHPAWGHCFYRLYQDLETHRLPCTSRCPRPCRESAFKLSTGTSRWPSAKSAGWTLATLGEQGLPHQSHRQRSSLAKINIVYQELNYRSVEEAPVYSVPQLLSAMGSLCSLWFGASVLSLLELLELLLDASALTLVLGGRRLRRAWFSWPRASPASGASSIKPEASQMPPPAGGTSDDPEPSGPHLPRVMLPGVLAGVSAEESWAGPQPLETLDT
T1 sequence (P51168 1-640): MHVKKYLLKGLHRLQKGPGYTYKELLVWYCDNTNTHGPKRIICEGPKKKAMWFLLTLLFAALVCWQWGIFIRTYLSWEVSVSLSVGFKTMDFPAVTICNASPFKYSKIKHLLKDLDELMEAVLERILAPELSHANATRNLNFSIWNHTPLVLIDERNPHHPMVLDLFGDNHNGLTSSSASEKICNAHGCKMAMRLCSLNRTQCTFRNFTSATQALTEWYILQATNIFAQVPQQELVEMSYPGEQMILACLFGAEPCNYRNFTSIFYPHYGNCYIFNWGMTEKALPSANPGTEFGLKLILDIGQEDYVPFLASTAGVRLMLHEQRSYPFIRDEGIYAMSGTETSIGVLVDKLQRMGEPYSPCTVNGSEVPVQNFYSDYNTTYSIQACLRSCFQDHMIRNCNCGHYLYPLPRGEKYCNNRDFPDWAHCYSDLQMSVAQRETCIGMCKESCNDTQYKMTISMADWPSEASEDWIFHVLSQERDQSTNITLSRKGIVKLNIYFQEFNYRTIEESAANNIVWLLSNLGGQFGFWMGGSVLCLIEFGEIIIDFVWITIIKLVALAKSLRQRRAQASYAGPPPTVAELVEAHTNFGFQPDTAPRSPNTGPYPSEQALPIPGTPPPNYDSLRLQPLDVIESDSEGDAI
T1 sequence (P51170 1-649): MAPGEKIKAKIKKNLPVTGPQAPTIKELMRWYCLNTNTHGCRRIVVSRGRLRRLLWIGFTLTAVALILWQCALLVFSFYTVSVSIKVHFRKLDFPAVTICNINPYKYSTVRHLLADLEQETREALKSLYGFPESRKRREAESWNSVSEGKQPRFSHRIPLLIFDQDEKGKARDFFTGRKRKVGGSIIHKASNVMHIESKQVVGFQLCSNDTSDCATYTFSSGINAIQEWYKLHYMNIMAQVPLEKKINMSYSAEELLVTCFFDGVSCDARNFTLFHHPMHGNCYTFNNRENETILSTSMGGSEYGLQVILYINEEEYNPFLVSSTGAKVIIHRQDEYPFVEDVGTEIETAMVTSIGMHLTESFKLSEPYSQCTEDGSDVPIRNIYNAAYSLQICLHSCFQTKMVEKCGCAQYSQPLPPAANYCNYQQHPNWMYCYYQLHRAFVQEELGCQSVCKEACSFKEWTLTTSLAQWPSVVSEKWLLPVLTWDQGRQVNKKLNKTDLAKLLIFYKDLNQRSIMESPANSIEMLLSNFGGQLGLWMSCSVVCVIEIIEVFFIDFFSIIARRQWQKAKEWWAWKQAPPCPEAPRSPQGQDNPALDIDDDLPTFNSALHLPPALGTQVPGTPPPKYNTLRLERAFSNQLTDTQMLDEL
Protocol: The frog, Xenopus laevis, produces oocytes that are particularly obliging in permitting a foreign gene to be incorporated into its protein translation system. The egg then makes this foreign protein encoded by the injected complimentary RNA (cRNA). Oocytes are harvested when at stage 5 or 6, from female Xenopus and defolliculated (using trypsin) and placed in low sodium culture medium. After overnight culture the egg is injected with the cRNA of the protein(s) of interest.
There is evidence that one of the major “receptors” of salty taste is the ENaC. This channel functions as a heterotrimer, a complex of three different peptides. The transfected eggs are then cultured for 4 to 6 days. Depending upon the endpoint of the study, all three subunits are expressed into one cell or one subunit is expressed per cell. The internal machinery of the cell places the ENaC into the plasma membrane. These preparations can be used as follows: • 1. Two Electrode Voltage Clamp (TEVC) across the entire oocyte is the most direct method for detecting ion flux through the ENaC, but it will respond to any ion movement, making it less desirable for precise analyses, but very useful as an initial screen. • 2. Patch clamp is used to record movement of very few ions through very few channels. […]

[2] = tested on: human taste; assay: Psychophysical assessment of salty taste enhancing properties; assay type: in vivo
Protocol: 121 subjects participated in this study. They were familiar with the taste of the 5 modalities (sweet, bitter, umami, sour, and salty), and the use of a modality—specific task. Each subject was presented with 5 cups, each having 10 ml of fluid, plus a large amount of water as a rinse before and in between each sampling. Subjects were told to hold the sample in their mouth for several seconds before making a judgment. Subjects sampled and rated all five solutions, then repeated the study. Subjects rated intensity and modality. The samples tested were • 1. 50 mM NaCl • 2. 75 mM NaCl • 3. N-(2-hydroxyethyl)-4-methylpentanamide at 20 ppm • 4. 50mM NaCl plus 20 ppm N-(2-hydroxyethyl)-4-methylpentanamide • 5. 75 mM NaCl plus 20 ppm N-(2-hydroxyethyl)-4-methylpentanamide
The results of this study are depicted in FIG. 1. The X-axis of FIG. 1 provides the identity of the five solutions that were rated and the Y-axis provides the Geometric Mean saltiness intensity ratings. Error bars are Geometric Standard Errors. […] It was slightly bitter tasting with an average bitterness intensity of 3 (data not shown). N-(2-hydroxyethyl)-4-methylpentanamide enhanced the saltiness of 50 mM NaCl by more than 100% and the saltiness of 75 mM NaCl by approximately 35%. Consistency among subjects was high as indicated by the error bars.

reversibility of inward current [1]: completely reversible | effect on sodium currents (inward current) in oocytes ([1]; successive addition of increasing (nanomolar) concentrations, from baseline state): enhancement of sodium currents
Structure (SMILES): CC(C)CCC(=O)NCCO [N-(2-hydroxyethyl)-4-methylpentanamide]
enhancement of saltiness of 50 mM NaCl ([2]; 50 mM NaCl plus 20 ppm compound, geometric mean saltiness intensity ratings): more than 100% | enhancement of saltiness of 75 mM NaCl ([2]; 75 mM NaCl plus 20 ppm compound, geometric mean saltiness intensity ratings): approximately 35% | saltiness of its own (saltiness intensity rating) ([2]; compound alone at 20 ppm, 121 subjects): almost no saltiness of its own | average bitterness intensity ([2]; compound alone at 20 ppm, data not shown): 3
